In EP4001279A1, “NOVEL SPIROPYRROLIDINE DERIVED ANTIVIRAL AGENTS” (Enanta Pharmaceuticals, Inc., priority 2020, dated 2022) one finds EC50 and IC50 data, which are given here for 29 molecules.

Where two headings read alike, the source gives them in different places.

Experiment [1] deals with 229E human corona virus (hCoV). As to the kind of experiment: 229E live virus assay (CPE, ATPlite readout in MRC-5 cells). Format: cell-based, hCoV-229E. The following applies: MOI 0.05, ATPlite readout, run in duplicate. A general note: ATP-based viability assays read luminescence as a measure of living cells.
A further experiment has as its target SARS-CoV-2 3CL-protease (Severe acute respiratory syndrome coronavirus 2, UniProt P0DTD1). As to the kind of experiment: SARS-CoV-2 3C-like (3CL) protease fluorescence assay (FRET). The class given is biochemical. The following applies: read-out: FRET IC50.
The mark [2] stands for this setting: Human coronavirus 229E, MRC5, hCoV-229E live virus.
Where [3] appears, read: SARS-CoV-2 3CL-protease 10 nM, 30 min preincubation at RT, substrate 40 µM, test compounds 0 - 10 µM, duplicate.

On to `COc1cccc2[nH]c(C(=O)N[C@@H](COC(C)(C)C)C(=O)N3C[C@]4(C[C@H]3C#N)C(=O)Nc3ccccc34)cc12` [Example 124], for which the EC50 (usually the concentration at which the effect is half-maximal) in experiment [1] (setting [2]) is under 100 nM. The IC50 (usually the concentration needed to halve the response being measured) on SARS-CoV-2 3CL-protease was under 100 nM.
On to `CC(C)(C)OC[C@H](NC(=O)c1cc2c(F)cc(F)cc2[nH]1)C(=O)N1C[C@]2(C[C@H]1C#N)C(=O)Nc1ccccc12` [Example 125], for which, in experiment [1] (setting [2]), the EC50 is 100 to 1000 nM. Further, the IC50 at SARS-CoV-2 3CL-protease was under 100 nM.
The like results for `CC(C)(C)CC(NC(=O)c1cnn(-c2ccc(F)cc2)c1)C(=O)N1CC2(CC1C#N)C(=O)Nc1ccccc12` (stereo not drawn) [Example 146] were, in that order, under 100 nM and under 100 nM.
Regarding `CC(C)C[C@H](NC(=O)c1cc2c(F)cc(F)c(F)c2[nH]1)C(=O)N1C[C@]2(C[C@H]1C#N)C(=O)Nc1ccccc12` [Example 152], at SARS-CoV-2 3CL-protease (setting [3]), the IC50 was under 100 nM.
The molecule `CC(C)C[C@@H](C(=O)N1C[C@]2(C[C@H]1C(=O)C(=O)NC1CCCCC1)C(=O)Nc1ccccc12)N(C)C(=O)c1cc2c(F)cc(F)c(F)c2[nH]1` [Example 156] had an EC50 in experiment [1] (setting [2]) of over 1000 nM. Moreover, the IC50 on SARS-CoV-2 3CL-protease was over 1000 nM.
In experiment [1] (setting [2]), `CC(C)C[C@@H](C(=O)N1C[C@]2(C[C@H]1C#N)C(=O)Nc1ccccc12)N(C)C(=O)c1ccccc1OC(F)F` [Example 176] showed an EC50 of under 100 nM. For the same molecule, the IC50 at SARS-CoV-2 3CL-protease was under 100 nM.
As for `CC(C)C[C@@H](C(=O)N1C[C@]2(C[C@H]1C#N)C(=O)Nc1ccccc12)N(C)C(=O)c1cc2cc(Br)ccc2cn1` [Example 230], the EC50 in experiment [1] (setting [2]) is under 100 nM. In addition, the IC50 on SARS-CoV-2 3CL-protease was 100 to 1000 nM.
With `COc1cc(C(=O)N(C)[C@@H](CC(C)C)C(=O)N2C[C@]3(C[C@H]2C#N)C(=O)Nc2ccccc23)cn2cc(C(F)F)nc12` [Example 255], the EC50 in experiment [1] (setting [2]) is under 100 nM. The IC50 on SARS-CoV-2 3CL-protease is under 100 nM.
`CC(C)C[C@@H](C(=O)N1C[C@]2(C[C@H]1C#N)C(=O)Nc1ccccc12)N(C)C(=O)[C@@H]1C[C@H]1c1ccccc1` [Example 280] had an EC50 in experiment [1] (setting [2]) of under 100 nM. Moreover, the IC50 on SARS-CoV-2 3CL-protease is under 100 nM.
`CC(C)CC(C(=O)N1CC2(CC1C#N)C(=O)Nc1ccccc12)N(C)C(=O)C1CC1c1ccccc1` (stereo not drawn) [Example 281] came in with an EC50 in experiment [1] (hCoV-229E live virus) of under 100 nM. Moreover, the IC50 at SARS-CoV-2 3CL-protease was under 100 nM.
In experiment [1] (setting [2]), `CC(C)CC(C(=O)N1CC2(CC1C#N)C(=O)Nc1ccccc12)N(C)C(=O)c1nnn(-c2ccccc2)n1` (stereo not drawn) [Example 287] gave an EC50 of under 100 nM. The IC50 on SARS-CoV-2 3CL-protease was under 100 nM.
As to `CC(C)CC(C(=O)N1CC2(CC1C#N)C(=O)Nc1ccccc12)N(C)C(=O)c1nccc2ccccc12` (stereo not drawn) [Example 300], at SARS-CoV-2 3CL-protease (setting [3]), the IC50 is 100 to 1000 nM.
For the molecule `CC(C)CC(C(=O)N1CC2(CC1C#N)C(=O)Nc1ccccc12)N(C)C(=O)c1cc(OC2CC2)c2nn(C3CC3)cc2c1` (stereo not drawn) [Example 307], the EC50 in experiment [1] (setting [2]) was in the range of 100 to 1000 nM. In addition, the IC50 at SARS-CoV-2 3CL-protease fell in the range of 100 to 1000 nM.
For the molecule `COc1cc(C(=O)N(C)C(CC(C)C)C(=O)N2CC3(CC2C#N)C(=O)Nc2ccccc23)cc2cn(C3CC3)nc12` (stereo not drawn) [Example 308], the EC50 in experiment [1] (setting [2]) was 100 to 1000 nM. For the same molecule, the half-maximal inhibitory concentration (IC50) on SARS-CoV-2 3CL-protease was under 100 nM.
For the molecule `CC(C)CC(C(=O)N1CC2(CC1C#N)C(=O)Nc1ccccc12)N(C)C(=O)c1cnc2ccc(F)cc2c1` (stereo not drawn) [Example 337], on SARS-CoV-2 3CL-protease (setting [3]), the IC50 was under 100 nM.
On to `CC(C)C[C@@H](C(=O)N1C[C@]2(C[C@H]1C#N)C(=O)Nc1ccccc12)N(C)C(=O)[C@H]1CCN(C(=O)C(F)(F)F)C1` [Example 346], for which the EC50 in experiment [1] (setting [2]) is under 100 nM. Besides, the IC50 at SARS-CoV-2 3CL-protease is under 100 nM.
Regarding `CC(C)CC(C(=O)N1CC2(CC1C#N)C(=O)Nc1ccccc12)N(C)C(=O)C1CCN(C(=O)C(F)(F)F)C1` (stereo not drawn) [Example 347], in experiment [1] (hCoV-229E live virus), the EC50 is under 100 nM. Further, the IC50 on SARS-CoV-2 3CL-protease was under 100 nM.
As to `COC[C@@H](C(=O)N1C[C@]2(C[C@H]1C#N)C(=O)Nc1ccccc12)N(C)C(=O)c1cc2c(F)cc(F)cc2[nH]1` [Example 369], the IC50 at SARS-CoV-2 3CL-protease (setting [3]) was under 100 nM.
`CN(C(=O)c1cc2c(F)cc(F)cc2[nH]1)[C@@H](Cc1ccc(O)cc1)C(=O)N1C[C@]2(C[C@H]1C#N)C(=O)Nc1ccccc12` [Example 388]: on SARS-CoV-2 3CL-protease (setting [3]), the IC50 was under 100 nM.
For the molecule `[2H]C([2H])([2H])N(C(=O)c1cnn(CC(F)(F)F)c1)[C@@H](CCCC)C(=O)N1C[C@]2(C[C@H]1C#N)C(=O)Nc1ccccc12` [Example 394], the IC50 on SARS-CoV-2 3CL-protease (setting [3]) was under 100 nM.
In the case of `CN(C(=O)c1cnn(C(C)(C)C)c1)[C@@H](CC1CC1)C(=O)N1C[C@]2(C[C@H]1C#N)C(=O)Nc1ccccc12` [Example 404], at SARS-CoV-2 3CL-protease (setting [3]), the IC50 was under 100 nM.
`CN(C(=O)[C@@H](O)C(C)(C)C)[C@@H](CC1CC1)C(=O)N1C[C@]2(C[C@H]1C#N)C(=O)Nc1ccccc12` [Example 416]: in experiment [1] (setting [2]), the EC50 was under 100 nM. On SARS-CoV-2 3CL-protease, the IC50 is under 100 nM.
Turning to `[2H]C([2H])([2H])N(C(=O)C(O)c1ccc(F)cc1)C(CCCC)C(=O)N1CC2(CC1C#N)C(=O)Nc1ccccc12` (stereo not drawn) [Example 420], the IC50 at SARS-CoV-2 3CL-protease (setting [3]) was under 100 nM.
For the molecule `[2H]C([2H])([2H])N(C(=O)C(O)c1ccc(F)cc1)C(CCCC)C(=O)N1CC2(CC1C#N)C(=O)Nc1ccccc12` (stereo not drawn) [Example 421], the IC50 at SARS-CoV-2 3CL-protease (setting [3]) was under 100 nM.
In experiment [1] (setting [2]), `C[C@H](OC(=O)N[C@@H](CC(C)(C)C)C(=O)N1C[C@]2(C[C@H]1C#N)C(=O)Nc1ccc(Cl)cc12)c1ccc(F)cc1` [Example 494] returned an EC50 of 100 to 1000 nM. Also, the IC50 at SARS-CoV-2 3CL-protease was under 100 nM.
Molecule `CC(C)C[C@@H](C(=O)N1C[C@]2(C[C@H]1C#N)C(=O)Nc1ccc(N=[N+]=[N-])cc12)N(C)C(=O)c1cc2c(F)cc(F)cc2[nH]1` [Example 503, N-((S)-1-((3R,5'S)-5-azido-5'-cyano-2-oxospiro[indoline-3,3'-pyrrolidin]-1'-yl)-4-methyl-1-oxopentan-2-yl)-4,6-difluoro-N-methyl-1H-indole-2-carboxamide] showed an EC50 in experiment [1] (setting [2]) of under 100 nM.
`CC(C)C[C@@H](C(=O)N1C[C@]2(C[C@H]1C#N)C(=O)Nc1ccc(NC(=O)C3(F)CC3)cc12)N(C)C(=O)c1cc2c(F)cc(F)cc2[nH]1` [Example 504, N-((S)-1-((3R,5'S)-5'-cyano-5-(1-fluorocyclopropane-1-carboxamido)-2-oxospiro[indoline-3,3'-pyrrolidin]-1'-yl)-4-methyl-1-oxopentan-2-yl)-4,6-difluoro-N-methyl-1H-indole-2-carboxamide] registered an EC50 in experiment [1] (setting [2]) of under 100 nM.
On the same count and under the same terms, the figure for `CC(C)C[C@@H](C(=O)N1C[C@]2(C[C@H]1C#N)C(=O)Nc1ccc(-n3cc(C4CC4)nn3)cc12)N(C)C(=O)c1cc2c(F)cc(F)cc2[nH]1` [Example 505, N-((S)-1-((3R,5'S)-5'-cyano-5-(4-cyclopropyl-1H-1,2,3-triazol-1-yl)-2-oxospiro[indoline-3,3'-pyrrolidin]-1'-yl)-4-methyl-1-oxopentan-2-yl)-4,6-difluoro-N-methyl-1H-indole-2-carboxamide] is under 100 nM.
Turning to `C[C@@H](OC(=O)N[C@@H](CC(C)(C)C)C(=O)N1C[C@]2(C[C@H]1C#N)C(=O)Nc1ccc(F)cc12)c1ccc(F)cc1` [Example 523], at SARS-CoV-2 3CL-protease (setting [3]), the IC50 was under 100 nM.
